Experimental data taken from the supplement of paper PMC5908809.

Legend:
[1] = tested on: normal NK cells expanded with K562-aAPC; experiment: percent inhibition of viability; higher = more inhibition; conditions: 72 h, IL-2 2.5 ng/mL
Method: (§1)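 Drug sensitivity and resistance testing on K562-aAPC-expanded normal NK cells: 5 concentrations (10-fold steps over a 10,000-fold range), 72 h at 37 °C, viability by CellTiter-Glo normalised to DMSO and benzethonium chloride controls; DSS from the fitted curve.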

DERL-7 (IL-2 2.5 ng/mL) [2] = experiment: as above; conditions: 72 h
IMC-1 (IL-2 20 ng/mL) [3] = experiment: as above; conditions: 72 h
KAI3 (IL-2 2.5 ng/mL) [4] = experiment: as above; conditions: 72 h
KHYG-1 (IL-2 2.5 ng/mL) [5] = experiment: as above; conditions: 72 h
NK-92 (IL-2 2.5 ng/mL) [6] = experiment: as above; conditions: 72 h
NK-YS (IL-2 2.5 ng/mL) [7] = experiment: as above; conditions: 72 h
NKL (IL-2 2.5 ng/mL) [8] = experiment: as above; conditions: 72 h
SNK-6 (IL-2 2.5 ng/mL) [9] = experiment: as above; conditions: 72 h
YT (IL-2 2.5 ng/mL) [10] = experiment: as above; conditions: 72 h
[11] = tested on: normal primary NK cells, pool 1 (3 donors) (IL-2 2.5 ng/mL); experiment: as above; conditions: 72 h
[12] = tested on: normal primary NK cells, pool 1 (3 donors), resting (IL-2 0 ng/mL); experiment: as above; conditions: 72 h
[13] = tested on: normal primary NK cells, pool 2 (3 donors) (IL-2 2.5 ng/mL); experiment: as above; conditions: 72 h
[14] = tested on: normal primary NK cells, pool 3 (3 donors) (IL-2 2.5 ng/mL); experiment: as above; conditions: 72 h
[15] = tested on: normal NK cells expanded with K562-aAPC; experiment: drug sensitivity score (DSS) (DSS units); higher = more sensitive; extreme values may be limits of the assay; conditions: 72 h; IL-2 2.5 ng/mL
Method: as §1

DERL-7 (IL-2 2.5 ng/mL) [16] = experiment: as above; conditions: 72 h
IMC-1 (IL-2 20 ng/mL) [17] = experiment: as above; conditions: 72 h
KAI3 (IL-2 2.5 ng/mL) [18] = experiment: as above; conditions: 72 h
KHYG-1 (IL-2 2.5 ng/mL) [19] = experiment: as above; conditions: 72 h
NK-92 (IL-2 2.5 ng/mL) [20] = experiment: as above; conditions: 72 h
NK-YS (IL-2 2.5 ng/mL) [21] = experiment: as above; conditions: 72 h
NKL (IL-2 2.5 ng/mL) [22] = experiment: as above; conditions: 72 h
SNK-6 (IL-2 2.5 ng/mL) [23] = experiment: as above; conditions: 72 h
YT (IL-2 2.5 ng/mL) [24] = experiment: as above; conditions: 72 h
[25] = tested on: normal primary NK cells, pool 1 (3 donors) (IL-2 2.5 ng/mL); experiment: as above; conditions: 72 h
[26] = tested on: normal primary NK cells, pool 1 (3 donors), resting (IL-2 0 ng/mL); experiment: as above; conditions: 72 h
[27] = tested on: normal primary NK cells, pool 2 (3 donors) (IL-2 2.5 ng/mL); experiment: as above; conditions: 72 h
[28] = tested on: normal primary NK cells, pool 3 (3 donors) (IL-2 2.5 ng/mL); experiment: as above; conditions: 72 h

COc1cc(O)c2c(c1)/C=C/C[C@H](O)[C@H](O)C(=O)/C=C\C[C@H](C)OC2=O [(5Z)-7-Oxozeaenol] (max concentration tested 10000 nM)
percent inhibition of viability [%]
Conditions	1 nM	10 nM	100 nM	1000 nM	10000 nM
DERL-7 (IL-2 2.5 ng/mL) [2]	-5.8	2.14	10.7	66.3	101
IMC-1 (IL-2 20 ng/mL) [3]	-4.21	-3.28	-4.71	-7.11	48.9
KAI3 (IL-2 2.5 ng/mL) [4]	0.25	0.75	5.8	59	105
KHYG-1 (IL-2 2.5 ng/mL) [5]	0.21	-0.62	3.17	83.9	109
NK-92 (IL-2 2.5 ng/mL) [6]	-20.1	-30	-17.5	26.2	104
NK-YS (IL-2 2.5 ng/mL) [7]	-3.96	-2.39	8.28	41.9	105
NKL (IL-2 2.5 ng/mL) [8]	-8.24	17.5	38.5	80	110
SNK-6 (IL-2 2.5 ng/mL) [9]	-2.4	-7.72	-14.8	23.5	95
YT (IL-2 2.5 ng/mL) [10]	-2.81	-5.3	6.58	46.2	105
[1]	-4.98	-3.35	-1.51	18.7	94.8
[11]	-6.25	6.9	22.8	45.6	98.5
[12]	-25.1	10.7	9.8	54.5	92
[13]	-15.9	1.06	2.6	22.8	96.8
[14]	-13.2	9.87	4.11	13.6	98.2

Conditions	drug sensitivity score
DERL-7 (IL-2 2.5 ng/mL) [16]	14.1
IMC-1 (IL-2 20 ng/mL) [17]	2.11
KAI3 (IL-2 2.5 ng/mL) [18]	12.6
KHYG-1 (IL-2 2.5 ng/mL) [19]	15.6
NK-92 (IL-2 2.5 ng/mL) [20]	9.5
NK-YS (IL-2 2.5 ng/mL) [21]	11
NKL (IL-2 2.5 ng/mL) [22]	20.5
SNK-6 (IL-2 2.5 ng/mL) [23]	8.87
YT (IL-2 2.5 ng/mL) [24]	11.4
[15]	8.28
[25]	12.1
[26]	12
[27]	8.91
[28]	7.72
